These results are taken from patent US5278186A, “Chromene derivatives, their production and use” (Takeda Chemical Industries, Ltd., priority 1990, dated 1994).

Each structure is given as a SMILES string.

In this test the target is T1, Acyl-CoA : cholesterol acyltransferase (ACAT) (Rattus norvegicus, UniProt Q7TQM4).
T1 construct: from the mucosal microsome fraction of the small intestine; from tissue; host or cells: small intestine mucosa (microsome fraction), Sprague-Dawley rat
T1 sequence (Q7TQM4 1-524): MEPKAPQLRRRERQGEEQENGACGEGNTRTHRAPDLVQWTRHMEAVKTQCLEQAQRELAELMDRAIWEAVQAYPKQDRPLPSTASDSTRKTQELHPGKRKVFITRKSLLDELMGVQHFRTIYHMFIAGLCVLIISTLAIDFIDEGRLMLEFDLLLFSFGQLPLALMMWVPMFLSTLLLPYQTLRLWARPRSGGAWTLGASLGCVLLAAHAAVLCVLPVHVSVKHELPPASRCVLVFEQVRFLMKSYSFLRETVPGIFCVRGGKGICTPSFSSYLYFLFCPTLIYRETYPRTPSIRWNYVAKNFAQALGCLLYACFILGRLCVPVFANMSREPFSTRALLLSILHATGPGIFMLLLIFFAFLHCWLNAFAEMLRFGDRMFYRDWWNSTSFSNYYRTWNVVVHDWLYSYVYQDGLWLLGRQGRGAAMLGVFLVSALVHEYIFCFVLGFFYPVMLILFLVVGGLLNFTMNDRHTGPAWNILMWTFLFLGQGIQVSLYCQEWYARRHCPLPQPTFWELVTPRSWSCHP
Put plainly: Acyl-CoA : cholesterol acyltransferase (ACAT) inhibitory activity. Type of test: biochemical. The settings on record: mucosal microsome fraction of small intestine of male 6-week old fasted Sprague-Dawley rats, labeled cholesterol ester from [1^14 C] oleoyl-CoA; for inhibition at 1 µM: 10^-6 M, read-out: ACAT Inhibition Rate (%) 10^-6 M; for inhibition at 0.01 µM: 10^-8 M, read-out: ACAT Inhibition Rate (%) 10^-8 M. How it is done:
The enzyme ACAT was prepared by the method of Heider et al. described in Journal of Lipid Research, Vol. 24, page 1127 (1982), from the mucosal microsome fraction of the small intestine of male, 6-week old Sprague-Dawley rats which had been fasted for 20 hours.
ACAT activity was calculated by the method of Helgerud et al. described in Journal of Lipid Research, Vol. 22, page 271 (1981), namely, by measuring the amount of the labeled cholesterol ester produced from [1^14 C] oleoyl-CoA and endogenous cholesterol.
Inhibition rates (%) of the production of the labeled cholesterol ester wherein 10^-6 M or 10^-8 M of test compounds were added are shown as an index of ACAT inhibitory activity in Table 1.

Broadly, the inhibition is the percentage by which the read-out fell short of the control.

On to `Cc1ccccc1-c1c(NC(=O)Nc2ccc(F)cc2F)c(=O)oc2ccc(Cl)cc12` [Example 1, N-[6-chloro-4-(2-methylphenyl)-2-oxo-2H-1-benzopyran-3-yl]-N'-(2,4-difluorophenyl) urea], for which the inhibition at 1 µM worked out at 99%.

`Cc1ccccc1-c1c(NC(=O)Nc2ccc(F)cc2F)c(=O)oc2ccc(C(C)C)cc12` [Example 2, N-(2,4-difluorophenyl)-N'-[6-isopropyl-4-(2-methylphenyl)-2-oxo-2H-1-benzopyran-3-yl] urea]: the inhibition at 1 µM amounted to 99%.

For `Cc1cc2oc(=O)c(NC(=O)Nc3ccc(F)cc3F)c(-c3ccccc3C)c2cc1C` [Example 3, N-(2,4-difluorophenyl)-N'-[4-(2-methylphenyl)-6,7-dimethyl-2-oxo-2H-1-benzopyran-3-yl] urea], the inhibition at 1 µM turned out to be 99.2%.

`Cc1cc2oc(=O)c(NC(=O)Nc3ccc(Cl)cc3)c(-c3ccccc3C)c2cc1C` [Example 4, N-(4-chlorophenyl)-N'-[6,7-dimethyl-4-(2-methylphenyl)-2-oxo-2-H-1-benzopyran-3-yl] urea]: the inhibition at 0.01 µM came out at 69.7%.

`CCc1ccc2oc(=O)c(NC(=O)Nc3ccc(F)cc3F)c(-c3ccccc3C)c2c1` [Example 6, N-[6-ethyl-4-(2-methylphenyl)-2-oxo-2H-1-benzopyran-3-yl]-N'-(2,4-difluorophenyl) urea]: the inhibition at 0.01 µM is 45.9%.

Consider `Cc1cc2oc(=O)c(NC(=O)Nc3ccc(F)cc3F)c(-c3ccccc3C)c2cc1Cl` [Example 7, N-[6-chloro-7-methyl-4-(2-methylphenyl)-2-oxo-2H-1-benzopyran-3-yl)-N'-(2,4-difuorophenyl) urea], for which the inhibition at 0.01 µM worked out at 81.7%.

Turning to `Cc1cc2oc(=O)c(NC(=O)Nc3ccc(F)cc3F)c(-c3ccccc3Cl)c2cc1C` [Example 11], the inhibition at 0.01 µM is 86.7%.

As to `Cc1ccc2oc(=O)c(NC(=O)Nc3ccc(F)cc3F)c(-c3ccccc3C)c2c1` [Example 16, N-[2,4-difluorophenyl)-N'-[6-methyl-4-(2-methylphenyl)-2-oxo-2H-1-benzopyran-3-yl) urea], the inhibition at 0.01 µM amounted to 42.7%.

For `Cc1cc2c(-c3ccccc3C)c(NC(=O)Nc3ccc(F)cc3F)c(=O)oc2cc1Cl` [Example 17, N-[7-chloro-6-methyl-4-(2-methylphenyl)-3-oxo-2H-1-benzopyran-3-yl)-N'-(2,4-difluorophenyl) urea], the inhibition at 0.01 µM is 84.2%.

Turning to `Cc1ccc2oc(=O)c(NC(=O)Nc3ccc(F)cc3F)c(-c3ccccc3Cl)c2c1` [Example 18, N-[4-(2-chlorophenyl)-6-methyl-2-oxo-2H-1-benzopyran-3-yl)-N'-(2,4-difluorophenyl) urea], the inhibition at 0.01 µM stood at 56.1%.

With `COc1cc(C=CC(=O)Nc2c(-c3ccccc3C)c3cc(Cl)c(C)cc3oc2=O)cc(OC)c1OC(C)=O` [Example 19, 3-(4-acetoxy-3,5-dimethoxycinnamoylamino)-6-chloro-7-methyl-4-(2-methylphenyl)-2H-1-benzopyran-2-one], the inhibition at 1 µM stood at 92.3%.

`Cc1cc2oc(=O)c(NC(=O)Nc3cccc(C(F)(F)F)c3)c(-c3ccccc3C)c2cc1Cl` [Example 20, N-[6-chloro-7-methyl-4-(2-methylphenyl)-2-oxo-2H-1-benzopyran-3-yl]-N'-(3-trifluoromethylphenyl) urea]: the inhibition at 1 µM is 84.8%.

As to `Cc1cc2sc(=O)c(NC(=O)Nc3ccc(F)cc3F)c(-c3ccccc3C)c2cc1Cl` [Example 22, N-[6-chloro-7-methyl-4-(2-methylphenyl)-2-oxo-2H-1-thiobenzopyran-3-y-1)-N'-(2,4-difluorophenyl) urea], the inhibition at 1 µM amounted to 97%.

For `COc1cc(NC(=O)Nc2c(-c3ccccc3Cl)c3cc(C)ccc3oc2=O)cc(OC)c1OC(C)=O` [Example 24, N-(4-acetoxy-3,5-dimethoxyphenyl)-N'-[4-(2-chlorophenyl)-6-methyl-2-oxo-2H-1-benzopyran-3-yl] urea], the inhibition at 1 µM came to 98.6%.

As for `COc1cc(NC(=O)Nc2c(-c3ccccc3C)c3cc(C)c(C)cc3oc2=O)cc(OC)c1OC(C)=O` [Example 25, N-(4-acetoxy-3,5-dimethoxyphenyl)-N'-[6,7-dimethyl-4-(2-methylphenyl)-2-oxo-2H-1-benzopyran-3-yl]urea], the inhibition at 1 µM amounted to 98.8%.

With `COc1cc(NC(=O)Nc2c(-c3ccccc3C)c3cc(Cl)c(C)cc3oc2=O)cc(OC)c1OC(C)=O` [Example 26, N-(4-acetoxy-3,5-dimethoxyphenyl)-N,-[6-chloro-7-methyl-4-(2-methylphenyl)-2-oxo-2H-1-benzopyran-3-yl]urea], the inhibition at 1 µM stood at 98.5%.

On to `CC(=O)Oc1c(C)cc(NC(=O)Nc2c(-c3ccccc3C)c3cc(Cl)c(C)cc3oc2=O)cc1C` [Example 27, N-(4-acetoxy-3,5-dimethylphenyl)-N'-[6-chloro-7-methyl-4-(2-methylphenyl)-2-oxo-2H-1-benzopyran-3-yl]urea], for which the inhibition at 1 µM is 99.1%.

`Cc1cc2oc(=O)c(NC(=O)Cc3ccc(F)cc3F)c(-c3ccccc3C)c2cc1Cl` [Example 28, 6-chloro-3-(2,4-difluorophenylacetylamino)-7-methyl-4-(2-methylphenyl)-2H-1-benzopyran-2-one]: the inhibition at 0.01 µM was 34.3%.

On to `Cc1cc2oc(=O)c(NC(=O)c3ccc(F)cc3F)c(-c3ccccc3C)c2cc1Cl` [Example 29, 6-chloro-3-(2,4-difluorobenzoylamino)-7-methyl-4-(2-methylphenyl)-2H-1-benzopyran-2-one], for which the inhibition at 1 µM came out at 95.4%.

With `CC(C)c1ccc2oc(=O)c(NC(=O)Nc3ccc(F)cc3F)c(-c3ccc(F)cc3)c2c1` [Example 30, N-(2,4-difluorophenyl)-N'-[4-(4-fluorophenyl)-6-isopropyl-2-oxo-2H-1-benzopyran-3-yl] urea], the inhibition at 1 µM amounted to 90.2%.
